The source of these data is patent EP4763839A1 (Pamplona Therapeutics (Shenzhen) Co., Ltd., priority 2023, dated 2025).

Structures can show the parent of a compound that is named as a salt. Bounds are passed on as bounds.

The test has as its target T1, IRAK4 (Homo sapiens, UniProt Q9NWZ3).
T1 sequence (Q9NWZ3 1-460): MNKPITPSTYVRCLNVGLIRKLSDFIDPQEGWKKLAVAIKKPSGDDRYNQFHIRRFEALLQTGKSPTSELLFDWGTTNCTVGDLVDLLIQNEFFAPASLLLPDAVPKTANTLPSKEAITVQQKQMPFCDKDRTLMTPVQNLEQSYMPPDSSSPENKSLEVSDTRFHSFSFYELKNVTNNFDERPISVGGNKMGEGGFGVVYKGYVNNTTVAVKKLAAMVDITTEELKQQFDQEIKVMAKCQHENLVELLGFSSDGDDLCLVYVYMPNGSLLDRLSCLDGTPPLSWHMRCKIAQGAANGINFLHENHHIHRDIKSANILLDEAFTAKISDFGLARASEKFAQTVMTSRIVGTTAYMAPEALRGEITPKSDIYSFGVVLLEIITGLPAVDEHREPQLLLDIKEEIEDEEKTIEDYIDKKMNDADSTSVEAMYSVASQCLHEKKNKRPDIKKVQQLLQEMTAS
In words: Degradation of IRAK4 in THP1 cells, Western blot. To be noted: THP-1 cells, 24 hours of incubation; for DC50: IRAK4 protein by Western blot, read-out: DC50; for Dmax: maximum degradation rate, read-out: Dmax. Type of test: cell-based. On the set-up: Degradation of IRAK4 in THP1 by compound; host or cells: THP-1. An outline of the steps: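 Degradation rate derived from densitometry of IRAK4 bands versus DMSO-treated controls. Read-out: anti-IRAK4 immunoblot (10% gel, 40 μg total protein per lane, BCA-normalised) of lysates from THP1 cells incubated with compound for 24 h.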
A general note: A western blot detects proteins with antibodies after separation by electrophoresis.

In the case of `Cn1c(=O)n(C2CCC(=O)NC2=O)c2cccc(N3CCC(CN4CCN(c5ccc(-n6cc(NC(=O)c7cccc(-c8ccn[nH]8)n7)c(S(N)(=O)=O)n6)cc5)CC4)CC3)c21` (centres unmarked) [Compound A327, N-(1-(4-(4-((1-(1-(2,6-dioxopiperidin-3-yl)-3-methyl-2-oxo-2,3-dihydro-1H-benzo[d]imidazol-4-yl)piperidin-4-yl)methyl)piperazin-1-yl)phenyl)-3-sulfamoyl-1H-pyrazol-4-yl)-6-(1H-pyrazol-5-yl)picolinamide], the 50% degradation concentration (DC50) (usually the midpoint of the concentration-degradation curve) was less than 100 nM and the maximal degradation (Dmax) – broadly, the largest share of the target that was removed – was greater than 60%.

In the case of `CC(C)(O)c1nn(-c2ccc(N3CCN(C4CCN(c5ccc(C(=O)NC6CCC(=O)NC6=O)c(F)c5)CC4)CC3)cc2)cc1NC(=O)c1cccc(C(F)(F)F)n1` (centres unmarked) [Compound A442, N-(1-(4-(4-(1-(4-((2,6-dioxopiperidin-3-yl)carbamoyl)-3-fluorophenyl)piperidin-4-yl)piperazin-1-yl)phenyl)-3-(2-hydroxypropan-2-yl)-1H-pyrazol-4-yl)-6-(trifluoromethyl)picolinamide], the half-maximal degradation concentration (DC50) was less than 100 nM and the Dmax is greater than 60%.

For the compound `NC(=O)c1nn(-c2ccc(COC3CC4(CCN(CC5CCN(c6ccc(NC7CCC(=O)NC7=O)cc6F)CC5)CC4)C3)cc2)cc1NC(=O)c1cccc(C(F)(F)F)n1` (centres unmarked) [Compound A317, N-(3-Carbamoyl-1-(4-(((7-((1-(4-((2,6-dioxopiperidin-3-yl)amino)-2-fluorophenyl)piperidin-4-yl)methyl)-7-azaspiro[3.5]nonan-2-yl)oxy)methyl)phenyl)-1H-pyrazol-4-yl)-6-(trifluoromethyl)picolinamide], the 50% degradation concentration (DC50) was less than 100 nM and the Dmax was greater than 60%.

In the case of `NC(=O)c1nn([C@H]2CC[C@H](N3CCN(CC4CN(c5ccc(N6CCC(=O)NC6=O)cc5)C4)CC3)CC2)cc1NC(=O)c1cccc(C(F)(F)F)n1` [Compound A403, N-(3-Carbamoyl-1-((1r,4r)-4-(4-((1-(4-(2,4-dioxotetrahydropyrimidin-1(2H)-yl)phenyl)azetidin-3-yl)methyl)piperazin-1-yl)cyclohexyl)-1H-pyrazol-4-yl)-6-(trifluoromethyl)picolinamide], the 50% degradation concentration (DC50) is less than 100 nM and the Dmax is 40 to 60%.

For `CC(C)(O)c1nn(-c2ccc(N3CCN(C4CCN(c5ccc(OC6CCC(=O)NC6=O)cn5)CC4)CC3)cc2)cc1NC(=O)c1cccc(C(F)(F)F)n1` (centres unmarked) [Compound A440, N-(1-(4-(4-(1-(5-((2,6-Dioxopiperidin-3-yl)oxy)pyridin-2-yl)piperidin-4-yl)piperazin-1-yl)phenyl)-3-(2-hydroxypropan-2-yl)-1H-pyrazol-4-yl)-6-(trifluoromethyl)picolinamide], the DC50 was less than 100 nM and the Dmax was greater than 60%.

On to `Cn1c(=O)n(C2CCC(=O)NC2=O)c2cccc(NCCN3CCC4(CCN(C(=O)c5ccc(-n6cc(NC(=O)c7cccc(-c8ccn[nH]8)n7)c(S(N)(=O)=O)n6)cc5)C4)C3)c21` (centres unmarked) [Compound A333], for which the DC50 was less than 100 nM and the greatest degradation seen (Dmax) is greater than 60%.

For `COc1cc(NC2CCC(=O)NC2=O)ccc1N1CCC(N2CCN(c3ccc(-n4cc(NC(=O)c5cccc(C(F)(F)F)n5)c(C(N)=O)n4)cc3)CC2)CC1` (centres unmarked) [Compound A425, N-(3-Carbamoyl-1-(4-(4-(1-(4-((2,6-dioxopiperidin-3-yl)amino)-2-methoxyphenyl)piperidin-4-yl)piperazin-1-yl)phenyl)-1H-pyrazol-4-yl)-6-(trifluoromethyl)picolinamide], the half-maximal degradation concentration (DC50) is less than 100 nM and the greatest degradation seen (Dmax) was greater than 60%.

Turning to `Cn1c(=O)n(C2CCC(=O)NC2=O)c2cccc(CN3CCC(N4CCN(c5ccc(-n6cc(NC(=O)c7cccc(C(F)(F)F)n7)c(C(N)=O)n6)cc5)CC4)CC3)c21` (centres unmarked) [Compound A372], the 50% degradation concentration (DC50) is less than 100 nM and the Dmax is greater than 60%.

On to `Cn1c(=O)n(C2CCC(=O)NC2=O)c2cccc(C#CCOC3CN(C(=O)c4ccc(-n5cc(NC(=O)c6cccc(-c7ccn[nH]7)n6)c(S(N)(=O)=O)n5)cc4)C3)c21` (centres unmarked) [Compound A348], for which the DC50 was less than 100 nM and the greatest degradation seen (Dmax) is greater than 60%.

Regarding `Cn1c(=O)n(C2CCC(=O)NC2=O)c2cccc(C#CCCN3CCN(C(=O)c4ccc(-n5cc(NC(=O)c6cccc(-c7ccn[nH]7)n6)c(S(N)(=O)=O)n5)cc4)CC3)c21` (centres unmarked) [Compound A336], the DC50 was less than 100 nM and the Dmax is greater than 60%.

Regarding `Cn1c(=O)n(C2CCC(=O)NC2=O)c2cccc(C#CCOC3CCN(Cc4ccc(-n5cc(NC(=O)c6cccc(-c7ccn[nH]7)n6)c(S(N)(=O)=O)n5)cc4)CC3)c21` (centres unmarked) [Compound A340, N-(1-(4-((4-((3-(1-(2,6-Dioxopiperidin-3-yl)-3-methyl-2-oxo-2,3-dihydro-1H-benzo[d]imidazol-4-yl)prop-2-yn-1-yl)oxy)piperidin-1-yl)methyl)phenyl)-3-sulfamoyl-1H-pyrazol-4-yl)-6-(1H-pyrazol-5-yl)picolinamide], the 50% degradation concentration (DC50) is less than 100 nM and the greatest degradation seen (Dmax) was greater than 60%.

Take `COc1ccc(C(=O)N2CCC(CCN3CCN(c4ccc(-n5cc(NC(=O)c6cccc(C(F)(F)F)n6)c(C(C)(C)O)n5)cc4)CC3)CC2)cc1N1CCC(=O)NC1=O` [Compound A454, N-(1-(4-(4-(2-(1-(3-(2,4-Dioxotetrahydropyrimidin-1(2H)-yl)-4-methoxybenzoyl)piperidin-4-yl)ethyl)piperazin-1-yl)phenyl)-3-(2-hydroxypropan-2-yl)-1H-pyrazol-4-yl)-6-(trifluoromethyl)picolinamide]: the 50% degradation concentration (DC50) was less than 100 nM and the Dmax was greater than 60%.

`CC(C)(O)c1nn(-c2ccc(N3CCN(CC4CCN(c5ccc(OC6CCC(=O)NC6=O)cn5)CC4)CC3)cc2)cc1NC(=O)c1cccc(C(F)(F)F)n1` (centres unmarked) [Compound A437]: the half-maximal degradation concentration (DC50) is less than 100 nM and the Dmax is greater than 60%.

As for `NC(=O)c1cn(-c2ccc(N3CCN(CC4CCN(c5ccc(NC6CCC(=O)NC6=O)cc5F)CC4)CC3)cc2)cc1NC(=O)c1cccc(C(F)(F)F)n1` (centres unmarked) [Compound A427, N-(4-Carbamoyl-1-(4-(4-((1-(4-((2,6-Dioxopiperidin-3-yl)amino)-2-fluorophenyl)piperidin-4-yl)methyl)piperazin-1-yl)phenyl)-1H-pyrrol-3-yl)-6-(trifluoromethyl)picolinamide], the half-maximal degradation concentration (DC50) was less than 100 nM and the Dmax was greater than 60%.

On to `Cn1c(=O)n(C2CCC(=O)NC2=O)c2cccc(N3CCC(N4CCN(Cc5ccc(-n6cc(NC(=O)c7cccc(C(F)(F)F)n7)c(C(N)=O)n6)cc5)CC4)CC3)c21` (centres unmarked) [Compound A373, N-(3-Carbamoyl-1-(4-(4-(1-(1-(2,6-dioxopiperidin-3-yl)-3-methyl-2-oxo-2,3-dihydro-1H-benzo[d]imidazol-4-yl)piperidin-4-yl)piperazin-1-yl)methyl)phenyl)-1H-pyrazol-4-yl)-6-(trifluoromethyl)picolinamide formate], for which the DC50 is less than 100 nM and the maximal degradation (Dmax) is greater than 60%.

`Cn1c(=O)n(C2CCC(=O)NC2=O)c2cccc(N3CCC4(CC3)CN(C(=O)Cc3ccc(-n5cc(NC(=O)c6cccc(C(F)(F)F)n6)c(C(N)=O)n5)cc3)C4)c21` (centres unmarked) [Compound A321, N-(3-Carbamoyl-1-(4-(2-(7-(1-(2,6-dioxopiperidin-3-yl)-3-methyl-2-oxo-2,3-dihydro-1H-benzimidazol-4-yl)-2,7-diazaspiro[3.5]nonan-2-yl)-2-oxoethyl)phenyl)-1H-pyrazol-4-yl)-6-(trifluoromethyl)picolinamide]: the DC50 is less than 100 nM and the maximal degradation (Dmax) is greater than 60%.

On to `Cn1c(=O)n(C2CCC(=O)NC2=O)c2cccc(N3CCC(C(=O)N4CCN(Cc5ccc(-n6cc(NC(=O)c7cccc(-c8ccn[nH]8)n7)c(S(N)(=O)=O)n6)cc5)CC4)CC3)c21` (centres unmarked) [Compound A331, N-(1-(4-((4-(1-(1-(2,6-dioxopiperidin-3-yl)-3-methyl-2-oxo-2,3-dihydro-1H-benzo[d]imidazol-4-yl)piperidine-4-carbonyl)piperazin-1-yl)methyl)phenyl)-3-sulfamoyl-1H-pyrazol-4-yl)-6-(1H-pyrazol-5-yl)picolinamide], for which the DC50 was less than 100 nM and the Dmax was greater than 60%.

Turning to `CN(CCN1CC2CN(c3cccc4c3n(C)c(=O)n4C3CCC(=O)NC3=O)CC2C1)Cc1ccc(-n2cc(NC(=O)c3cccc(-c4ccn[nH]4)n3)c(S(N)(=O)=O)n2)cc1` (centres unmarked) [Compound A337, N-(1-(4-(((2-(5-(1-(2,6-Dioxopiperidin-3-yl)-3-methyl-2-oxo-2,3-dihydro-1H-benzo[d]imidazol-4-yl)hexahydropyrrolo[3,4-c]pyrrol-2(1H)-yl)ethyl)(methyl)amino)methyl)phenyl)-3-sulfamoyl-1H-pyrazol-4-yl)-6-(1H-pyrazol-5-yl)picolinamide], the DC50 is less than 100 nM and the Dmax was greater than 60%.

Take `CC(C)(O)c1nn(-c2ccc(N3CCN(C4CCN(c5ccc(C(=O)NC6CCC(=O)NC6=O)cc5F)CC4)CC3)cc2)cc1NC(=O)c1cccc(C(F)(F)F)n1` (centres unmarked) [Compound A443, N-(1-(4-(4-(1-(4-((2,6-dioxopiperidin-3-yl)carbamoyl)-2-fluorophenyl)piperidin-4-yl)piperazin-1-yl)phenyl)-3-(2-hydroxypropan-2-yl)-1H-pyrazol-4-yl)-6-(trifluoromethyl)picolinamide]: the DC50 is less than 100 nM and the Dmax was greater than 60%.
